According to patent US12655125B2 (SIRONAX LTD., priority 2020, dated 2026):
Read-outs that look alike come from different tables or passages of the source.

System: HT-29 cells
Assay: HT29 Cells 0FBS Assay In Vitro (TNF-α/SMAC mimetic/zVAD-FMK induced necroptosis, CellTiter-Glo cell viability)
Type: cell-based
Conditions: Homo sapiens, HT-29 cells, FBS free medium, TNF-α (10 ng/ml), SMAC mimetic (6 uM), zVAD-FMK (10 μM), 20 hours, geometric mean EC50
How it was run: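 Viability was measured by ATP luminescence (CellTiter-Glo) after 20 h at 37° C of compound exposure in 10-point, 1:3 dilutions. Necroptosis in FBS-free HT-29 cultures was driven by a TNF-α (10 ng/ml), SMAC mimetic (6 μM) and zVAD-FMK (10 μM) cocktail. EC50 values are geometric means from duplicate curves.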

[1] = read-out: Cell activity (EC50) of Compounds 117-281
[2] = read-out: Cell activity (EC50) of Compounds 1-116

Row | SMILES | EC50 [1] | EC50 [2]
1 | CONS(=O)(=O)c1c(C)nn(-c2cc(OC3CN(C(=O)N4N=CC[C@H]4c4cc(F)cc(F)c4)C3)c(F)cn2)c1C [compound 248, (S)-1-(4-((1-(5-(3,5-difluorophenyl)-4,5-dihydro-1H-pyrazole-1-carbonyl)azetidin-3-yl)oxy)-5-fluoropyridin-2-yl)-N-methoxy-3,5-dimethyl-1H-pyrazole-4-sulfonamide] | 0.1 to 100 nM | 
2 | Cc1c(N)nn(C)c1-c1ccc(F)c(OC2CN(C(=O)N3N=CC[C@H]3c3cc(F)cc(F)c3)C2)n1 [compound 215, (S)-(3-((6-(3-amino-1,4-dimethyl-1H-pyrazol-5-yl)-3-fluoropyridin-2-yl)oxy)azetidin-1-yl)(5-(3,5-difluorophenyl)-4,5-dihydro-1H-pyrazol-1-yl)methanone] | 0.1 to 100 nM | 
3 | Cc1c(C(N)=O)cnn1-c1cc(OC2CN(C(=O)N3N=CC[C@H]3c3cc(F)cc(F)c3)C2)c(F)cn1 [compound 273, (S)-1-(4-((1-(5-(3,5-difluorophenyl)-4,5-dihydro-1H-pyrazole-1-carbonyl)azetidin-3-yl)oxy)-5-fluoropyridin-2-yl)-5-methyl-1H-pyrazole-4-carboxamide] | 0.1 to 100 nM | 
4 | Cc1cc(-c2ncc(F)c(OC3CN(C(=O)N4N=CC[C@H]4c4cc(F)cc(F)c4)C3)n2)n(C)n1 [compound 35, (S)-(5-(3,5-difluorophenyl)-4,5-dihydro-1H-pyrazol-1-yl)(3-((2-(1,3-dimethyl-1H-pyrazol-5-yl)-5-fluoropyrimidin-4-yl)oxy)azetidin-1-yl)methanone] |  | 0.1 to 100 nM
5 | Cc1c(Cl)nn(C)c1-c1cc(OC2CN(C(=O)N3N=CC[C@H]3c3cc(F)cc(F)c3)C2)c(F)cn1 [compound 175, (S)-(3-((2-(3-chloro-1,4-dimethyl-1H-pyrazol-5-yl)-5-fluoropyridin-4-yl)oxy)azetidin-1-yl)(5-(3,5-difluorophenyl)-4,5-dihydro-1H-pyrazol-1-yl)methanone] | 0.1 to 100 nM | 
6 | Cn1ncc(F)c1-c1cc(OC2CN(C(=O)N3N=CC[C@H]3c3cc(F)cc(F)c3)C2)c(F)cn1 [compound 81, (S)-(5-(3,5-difluorophenyl)-4,5-dihydro-1H-pyrazol-1-yl)(3-((5-fluoro-2-(4-fluoro-1-methyl-1H-pyrazol-5-yl)pyridin-4-yl)oxy)azetidin-1-yl)methanone] |  | 0.1 to 100 nM
7 | Cc1cn(C)c(=O)n1-c1cc(OC2CN(C(=O)N3N=CC[C@H]3c3cc(F)cc(F)c3)C2)c(F)cn1 [compound 238, (S)-3-(4-((1-(5-(3,5-difluorophenyl)-4,5-dihydro-1H-pyrazole-1-carbonyl)azetidin-3-yl)oxy)-5-fluoropyridin-2-yl)-1,4-dimethyl-1,3-dihydro-2H-imidazol-2-one] | 100 to 1000 nM | 
8 | CNC(=O)Nc1cnn(C)c1-c1cc(OC2CN(C(=O)N3N=CC[C@H]3c3cc(F)cc(F)c3)C2)c(F)cn1 [compound 142, (S)-1-(5-(4-((1-(5-(3,5-difluorophenyl)-4,5-dihydro-1H-pyrazole-1-carbonyl)azetidin-3-yl)oxy)-5-fluoropyridin-2-yl)-1-methyl-11H-pyrazol-4-yl)-3-methylurea] | 0.1 to 100 nM | 
9 | Cc1nccn1-c1ncc(F)c(OC2CN(C(=O)N3N=CC[C@H]3c3cc(F)cc(F)c3)C2)n1 [compound 105, (S)-(5-(3,5-difluorophenyl)-4,5-dihydro-1H-pyrazol-1-yl)(3-((5-fluoro-2-(2-methyl-1H-imidazol-1-yl)pyrimidin-4-yl)oxy)azetidin-1-yl)methanone] |  | 0.1 to 100 nM
10 | Cc1nc(C#N)c(C)n1-c1cc(OC2CN(C(=O)N3N=CC[C@H]3c3cc(F)cc(F)c3)C2)c(F)cn1 [compound 199, (S)-1-(4-((1-(5-(3,5-difluorophenyl)-4,5-dihydro-1H-pyrazole-1-carbonyl)azetidin-3-yl)oxy)-5-fluoropyridin-2-yl)-2,5-dimethyl-1H-imidazole-4-carbonitrile] | 0.1 to 100 nM | 
11 | CN(C)c1cc(-c2cc(OC3CN(C(=O)N4N=CC[C@H]4c4cc(F)cc(F)c4)C3)c(F)cn2)n(C)n1 [compound 166, (S)-(5-(3,5-difluorophenyl)-4,5-dihydro-1H-pyrazol-1-yl)(3-((2-(3-(dimethylamino)-1-methyl-1H-pyrazol-5-yl)-5-fluoropyridin-4-yl)oxy)azetidin-1-yl)methanone] | 0.1 to 100 nM | 
12 | Cn1ncc(Cl)c1-c1ncc(F)c(OC2CN(C(=O)N3N=CC[C@H]3c3cc(F)cc(F)c3)C2)n1 [compound 84, (S)-(3-((2-(4-chloro-1-methyl-1H-pyrazol-5-yl)-5-fluoropyrimidin-4-yl)oxy)azetidin-1-yl)(5-(3,5-difluorophenyl)-4,5-dihydro-1H-pyrazol-1-yl)methanone] |  | 0.1 to 100 nM
13 | Cc1cnn(C)c1-c1cc(OC2CN(C(=O)N3N=CC[C@H]3c3cc(F)cc(F)c3)C2)c(F)cn1 [compound 43, (S)-(5-(3,5-difluorophenyl)-4,5-dihydro-1H-pyrazol-1-yl)(3-((2-(1,4-dimethyl-1H-pyrazol-5-yl)-5-fluoropyridin-4-yl)oxy)azetidin-1-yl)methanone] |  | 0.1 to 100 nM
14 | Cc1cc(C(F)(F)F)nn1-c1cc(OC2CN(C(=O)N3N=CC[C@H]3c3cc(F)cc(F)c3)C2)c(F)cn1 [compound 170, (S)-(5-(3,5-difluorophenyl)-4,5-dihydro-1H-pyrazol-1-yl)(3-((5-fluoro-2-(5-methyl-3-(trifluoromethyl)-1H-pyrazol-1-yl)pyridin-4-yl)oxy)azetidin-1-yl)methanone] | 0.1 to 100 nM | 
15 | Cc1nn(-c2cc(OC3CN(C(=O)N4N=CC[C@H]4c4cc(F)cc(F)c4)C3)c(F)cn2)c(C)c1C(=O)N[C@H]1C[C@H](O)C1 [compound 255, 1-(4-((1-((S)-5-(3,5-difluorophenyl)-4,5-dihydro-1H-pyrazole-1-carbonyl)azetidin-3-yl)oxy)-5-fluoropyridin-2-yl)-N-((1r,3r)-3-hydroxycyclobutyl)-3,5-dimethyl-1H-pyrazole-4-carboxamide] | 0.1 to 100 nM | 
16 | Cc1ncsc1-c1ncc(F)c(OC2CN(C(=O)N3N=CC[C@H]3c3cc(F)cc(F)c3)C2)n1 [compound 9, (S)-(5-(3,5-difluorophenyl)-4,5-dihydro-1H-pyrazol-1-yl)(3-((5-fluoro-2-(4-methylthiazol-5-yl)pyrimidin-4-yl)oxy)azetidin-1-yl)methanone] |  | 0.1 to 100 nM
17 | CN(C)C(=O)CNc1cnn(C)c1-c1cc(OC2CN(C(=O)N3N=CC[C@H]3c3cc(F)cc(F)c3)C2)c(F)cn1 [compound 63, (S)-2-((5-(4-((1-(5-(3,5-difluorophenyl)-4,5-dihydro-1H-pyrazole-1-carbonyl)azetidin-3-yl)oxy)-5-fluoropyridin-2-yl)-1-methyl-1H-pyrazol-4-yl)amino)-N,N-dimethylacetamide] |  | 0.1 to 100 nM
18 | Cc1noc(C)c1-c1cc(OC2CN(C(=O)N3N=CC[C@H]3c3cc(F)cc(F)c3)C2)c(F)cn1 [compound 268, (S)-(5-(3,5-difluorophenyl)-4,5-dihydro-1H-pyrazol-1-yl)(3-((2-(3,5-dimethylisoxazol-4-yl)-5-fluoropyridin-4-yl)oxy)azetidin-1-yl)methanone] | 0.1 to 100 nM | 
19 | Cc1nn(-c2cc(OC3CN(C(=O)N4N=CC[C@H]4c4cc(F)cc(F)c4)C3)c(F)cn2)c(C)c1S(=O)(=O)NC1CCC1 [compound 235, (S)—N-cyclobutyl-1-(4-((1-(5-(3,5-difluorophenyl)-4,5-dihydro-1H-pyrazole-1-carbonyl)azetidin-3-yl)oxy)-5-fluoropyridin-2-yl)-3,5-dimethyl-1H-pyrazole-4-sulfonamide] | 0.1 to 100 nM | 
20 | Cc1nc(C)c(-c2ncc(F)c(OC3CN(C(=O)N4N=CC[C@H]4c4cc(F)cc(F)c4)C3)n2)s1 [compound 19, (S)-(5-(3,5-difluorophenyl)-4,5-dihydro-1H-pyrazol-1-yl)(3-((2-(2,4-dimethylthiazol-5-yl)-5-fluoropyrimidin-4-yl)oxy)azetidin-1-yl)methanone] |  | 0.1 to 100 nM
21 | Cc1nn(-c2cc(OC3CN(C(=O)N4N=CC[C@H]4c4cc(F)cc(F)c4)C3)c(F)cn2)c(C)c1[S+](C)[O-] (stereo partly drawn) [compound 204, ((S)-5-(3,5-difluorophenyl)-4,5-dihydro-1H-pyrazol-1-yl)(3-((2-(3,5-dimethyl-4-(methylsulfinyl)-1H-pyrazol-1-yl)-5-fluoropyridin-4-yl)oxy)azetidin-1-yl)methanone] | 0.1 to 100 nM | 
22 | Cn1nccc1-c1cc(OC2CN(C(=O)N3N=CCC3c3cc(F)cc(F)c3)C2)c(F)cn1 (stereo not shown) [compound 250, (5-(3,5-difluorophenyl)-4,5-dihydro-1H-pyrazol-1-yl)(3-((5-fluoro-2-(1-methyl-1H-pyrazol-5-yl)pyridin-4-yl)oxy)azetidin-1-yl)methanone] | 0.1 to 100 nM | 
23 | Cc1c(NC(C)C)nn(C)c1-c1cc(OC2CN(C(=O)N3N=CC[C@H]3c3cc(F)cc(F)c3)C2)c(F)cn1 [compound 162, (S)-(5-(3,5-difluorophenyl)-4,5-dihydro-1H-pyrazol-1-yl)(3-((5-fluoro-2-(3-(isopropylamino)-1,4-dimethyl-1H-pyrazol-5-yl)pyridin-4-yl)oxy)azetidin-1-yl)methanone] | 0.1 to 100 nM | 
24 | Cn1nncc1-c1cc(OC2CN(C(=O)N3N=CC[C@H]3c3cc(F)cc(F)c3)C2)c(F)cn1 [compound 34, (S)-(5-(3,5-difluorophenyl)-4,5-dihydro-1H-pyrazol-1-yl)(3-((5-fluoro-2-(1-methyl-1H-1,2,3-triazol-5-yl)pyridin-4-yl)oxy)azetidin-1-yl)methanone] |  | 0.1 to 100 nM
25 | Cc1csnc1-c1ccc(F)c(OC2CN(C(=O)N3N=CC[C@H]3c3cc(F)cc(F)c3)C2)n1 [compound 23, (S)-(5-(3,5-difluorophenyl)-4,5-dihydro-1H-pyrazol-1-yl)(3-((3-fluoro-6-(4-methylisothiazol-3-yl)pyridin-2-yl)oxy)azetidin-1-yl)methanone] |  | 0.1 to 100 nM
